# Reference: PubChem BioAssay AID220 (DTP/NCI, 2004)
# “And” between values parts separate entries of the source, which are not always exact repeats. Equal values may be shown once. Inconclusive results are not listed.
# Test system: CD8F1 mice, subcutaneous mammary adenocarcinoma, T/C%
# Test: NCI In Vivo Anticancer Drug Screen. Data for tumor model Mammary Adenocarcinoma CD8F1 (subcutaneous) in CD8F1
# Conditions: higher = larger tumour
# How it was run: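 Transplantable tumors were established in mice, animals were dosed with compound or vehicle, and survival or tumor size was then measured in both groups. The treated result was divided by the control result.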
# [1] = endpoint: median tumor weight (est.), dose: 12.5 mg/kg/injection, schedule: Q07DX005 (ip), vehicle: water
# [2] = endpoint: median tumor weight (est.), dose: 12.5 mg/kg/injection, schedule: Q07DX005 (ip), vehicle: saline
# [3] = endpoint: median tumor weight (est.), dose: 25.0 mg/kg/injection, schedule: Q07DX005 (ip), vehicle: saline
# [4] = endpoint: median tumor weight (est.), dose: 50.0 mg/kg/injection, schedule: Q07DX005 (ip), vehicle: saline
# [5] = endpoint: median tumor weight (est.), dose: 100.0 mg/kg/injection, schedule: Q07DX005 (ip), vehicle: saline
# [6] = endpoint: median tumor weight (est.), dose: 200.0 mg/kg/injection, schedule: Q07DX005 (ip), vehicle: saline
# [7] = endpoint: median tumor weight (est.), dose: 400.0 mg/kg/injection, schedule: Q07DX005 (ip), vehicle: saline
# [8] = endpoint: median tumor weight (est.), dose: 3.12 mg/kg/injection, schedule: Q07DX005 (ip), vehicle: saline
# [9] = endpoint: median tumor weight (est.), dose: 6.25 mg/kg/injection, schedule: Q07DX005 (ip), vehicle: saline
# [10] = endpoint: median tumor weight change, dose: 125.0 mg/kg/injection, schedule: Q01DX001 (ip), vehicle: saline with Tween-80
compound,measurement,setting,value
C/C=C(\C)c1cc(=O)c2c(C)cc3c(c2o1)C(=O)c1c(O)c(C2CC(C)(N(C)C)C(OC(C)=O)C(C)O2)cc(C2CC(N(C)C)C(O)C(C)O2)c1C3=O (configuration not stated),T/C,"endpoint: median tumor weight (est.), dose: 0.15 mg/kg/injection, schedule: Q07DX005 (ip), vehicle: saline",157 % of control
same,T/C,"endpoint: median tumor weight (est.), dose: 0.31 mg/kg/injection, schedule: Q07DX005 (ip), vehicle: saline",100 % of control
same,T/C,"endpoint: median tumor weight (est.), dose: 0.62 mg/kg/injection, schedule: Q07DX005 (ip), vehicle: saline",116 % of control
same,T/C,"endpoint: median tumor weight change, dose: 1.56 mg/kg/injection, schedule: Q01DX001 (ip), vehicle: suspension in saline",164 % of control
same,T/C,"endpoint: median tumor weight change, dose: 3.12 mg/kg/injection, schedule: Q01DX001 (ip), vehicle: suspension in saline",153 % of control
same,T/C,"endpoint: median tumor weight change, dose: 6.25 mg/kg/injection, schedule: Q01DX001 (ip), vehicle: suspension in saline",116 % of control
same,T/C,"endpoint: median tumor weight change, dose: 12.5 mg/kg/injection, schedule: Q01DX001 (ip), vehicle: suspension in saline",82 % of control
same,T/C,"endpoint: median tumor weight change, dose: 25.0 mg/kg/injection, schedule: Q01DX001 (ip), vehicle: suspension in saline",64 % of control
N=C(N)c1ccc(/C=C/c2ccc(C(=N)N)cc2O)cc1,T/C,[1],75 % of control and 76 % of control
CC(=O)C(=O)O.CC(=O)C(=O)O.[NH-]C1CCCCC1[NH-].[Pt+2] (configuration not stated),T/C,"endpoint: median tumor weight change, dose: 15.0 mg/kg/injection, schedule: Q01DX001 (ip), vehicle: dextrose",70 % of control
same,T/C,"endpoint: median tumor weight change, dose: 30.0 mg/kg/injection, schedule: Q01DX001 (ip), vehicle: dextrose",79 % of control
same,T/C,"endpoint: median tumor weight change, dose: 60.0 mg/kg/injection, schedule: Q01DX001 (ip), vehicle: dextrose",51 % of control
same,T/C,"endpoint: median tumor weight change, dose: 62.5 mg/kg/injection, schedule: Q01DX001 (ip), vehicle: dextrose",-38 % of control
same,T/C,"endpoint: median tumor weight change, dose: 120.0 mg/kg/injection, schedule: Q01DX001 (ip), vehicle: dextrose",45 % of control
c1cc2n(n1)CCN2,T/C,[2],76 % of control
same,T/C,[3],94 % of control
same,T/C,[4],102 % of control
same,T/C,[5],85 % of control
same,T/C,[6],54 % of control
same,T/C,[7],46 % of control
COC1N(C2CC(O)C(CO)O2)C(=O)NC(=O)C1(F)Br (configuration not stated),T/C,[8],74 % of control
same,T/C,[9],54 % of control
same,T/C,"endpoint: median tumor weight (est.), dose: 6.25 mg/kg/injection, schedule: Q07DX005 (ip), vehicle: suspension in saline",67 % of control
same,T/C,[2],28 % of control
same,T/C,"endpoint: median tumor weight (est.), dose: 12.5 mg/kg/injection, schedule: Q07DX005 (ip), vehicle: suspension in saline",113 % of control
same,T/C,[3],46 % of control
same,T/C,"endpoint: median tumor weight (est.), dose: 25.0 mg/kg/injection, schedule: Q07DX005 (ip), vehicle: suspension in saline",66 % of control
same,T/C,[4],28 % of control
same,T/C,"endpoint: median tumor weight (est.), dose: 50.0 mg/kg/injection, schedule: Q07DX005 (ip), vehicle: suspension in saline",45 % of control
same,T/C,[5],5 % of control
same,T/C,"endpoint: median tumor weight (est.), dose: 100.0 mg/kg/injection, schedule: Q07DX005 (ip), vehicle: suspension in saline",45 % of control
same,T/C,"endpoint: median tumor weight (est.), dose: 200.0 mg/kg/injection, schedule: Q07DX005 (ip), vehicle: suspension in saline",57 % of control
O.O.[NH-]C1CCCCC1[NH-].[Pt+2] (configuration not stated),T/C,"endpoint: median tumor weight (est.), dose: 0.62 mg/kg/injection, schedule: Q07DX005 (ip), vehicle: dextrose",50 % of control
same,T/C,"endpoint: median tumor weight (est.), dose: 20.0 mg/kg/injection, schedule: Q07DX005 (ip), vehicle: dextrose",69 % of control
same,T/C,"endpoint: median tumor weight (est.), dose: 40.0 mg/kg/injection, schedule: Q07DX005 (ip), vehicle: dextrose",39 % of control
CNc1nc(N(C)C)nc(N(C)C)n1,T/C,[8],89 % of control
same,T/C,[9],111 % of control
same,T/C,[2],75 % of control
same,T/C,[1],65 % of control
same,T/C,[3],108 % of control
same,T/C,"endpoint: median tumor weight (est.), dose: 25.0 mg/kg/injection, schedule: Q07DX005 (ip), vehicle: water",94 % of control
same,T/C,[4],63 % of control
same,T/C,"endpoint: median tumor weight (est.), dose: 50.0 mg/kg/injection, schedule: Q07DX005 (ip), vehicle: water",13 % of control
same,T/C,"endpoint: median tumor weight (est.), dose: 74.0 mg/kg/injection, schedule: Q07DX005 (ip), vehicle: other",33 % of control
same,T/C,[5],48 % of control
same,T/C,"endpoint: median tumor weight (est.), dose: 100.0 mg/kg/injection, schedule: Q07DX005 (ip), vehicle: water",28 % of control
same,T/C,"endpoint: median tumor weight (est.), dose: 148.0 mg/kg/injection, schedule: Q07DX005 (ip), vehicle: other",47 % of control
same,T/C,"endpoint: median tumor weight (est.), dose: 222.0 mg/kg/injection, schedule: Q07DX005 (ip), vehicle: other",7 % of control
O=C(CCCCCCC(=O)ON1C(=O)CCC1=O)ON1C(=O)CCC1=O,T/C,"endpoint: median tumor weight change, dose: 187.5 mg/kg/injection, schedule: Q01DX001 (ip), vehicle: saline with Tween-80",100 % of control
same,T/C,"endpoint: median tumor weight change, dose: 375.0 mg/kg/injection, schedule: Q01DX001 (ip), vehicle: saline with Tween-80",102 % of control
same,T/C,"endpoint: median tumor weight change, dose: 750.0 mg/kg/injection, schedule: Q01DX001 (ip), vehicle: saline with Tween-80",51 % of control
CCc1ccc(C2=C(O)C(=O)C(c3ccc(CC)cc3)=C(O)C2=O)cc1,T/C,"endpoint: median tumor weight change, dose: 16.0 mg/kg/injection, schedule: Q01DX001 (ip), vehicle: saline with Tween-80",88 % of control
same,T/C,"endpoint: median tumor weight change, dose: 31.0 mg/kg/injection, schedule: Q01DX001 (ip), vehicle: saline with Tween-80",107 % of control
same,T/C,"endpoint: median tumor weight change, dose: 62.0 mg/kg/injection, schedule: Q01DX001 (ip), vehicle: saline with Tween-80",92 % of control
same,T/C,[10],61 % of control
OCC1OC(n2cnc3c(Cl)ncnc32)C(O)C1O (configuration not stated),T/C,[2],90 % of control
same,T/C,[3],26 % of control
same,T/C,[5],28 % of control
same,T/C,[6],71 % of control
same,T/C,[7],115 % of control
c1cc(OCC2CO2)ccc1OCC1CO1 (configuration not stated),T/C,"endpoint: median tumor weight change, dose: 125.0 mg/kg/injection, schedule: Q01DX001 (ip), vehicle: Klucel (hydroxypropylcellulose) (HPC)",92 % of control
same,T/C,"endpoint: median tumor weight change, dose: 250.0 mg/kg/injection, schedule: Q01DX001 (ip), vehicle: Klucel (hydroxypropylcellulose) (HPC)",113 % of control
C[CH2][Ge]([CH2]C)[CH2]C.C[CH2][Ge]([CH2]C)[CH2]C.C[CH2][Ge]([CH2]C)[O][Ge]([CH2]C)[CH2]C,T/C,[10],81 % of control
same,T/C,"endpoint: median tumor weight change, dose: 500.0 mg/kg/injection, schedule: Q01DX001 (ip), vehicle: saline with Tween-80",114 % of control
Cc1ccc(C2NC(=O)c3ccccc3N2)s1 (configuration not stated),T/C,"endpoint: mean tumor weight, dose: 25.0 mg/kg/injection, schedule: Q07DX005 (ip), vehicle: Klucel (hydroxypropylcellulose) (HPC)",82 % of control
same,T/C,"endpoint: mean tumor weight, dose: 50.0 mg/kg/injection, schedule: Q07DX005 (ip), vehicle: Klucel (hydroxypropylcellulose) (HPC)",88 % of control
same,T/C,"endpoint: mean tumor weight, dose: 100.0 mg/kg/injection, schedule: Q07DX005 (ip), vehicle: Klucel (hydroxypropylcellulose) (HPC)",106 % of control
same,T/C,"endpoint: mean tumor weight, dose: 200.0 mg/kg/injection, schedule: Q07DX005 (ip), vehicle: Klucel (hydroxypropylcellulose) (HPC)",105 % of control
same,T/C,"endpoint: mean tumor weight, dose: 400.0 mg/kg/injection, schedule: Q07DX005 (ip), vehicle: Klucel (hydroxypropylcellulose) (HPC)",123 % of control
same,T/C,"endpoint: median tumor weight (est.), dose: 12.5 mg/kg/injection, schedule: Q07DX005 (ip), vehicle: Klucel (hydroxypropylcellulose) (HPC)",78 % of control
same,T/C,"endpoint: median tumor weight (est.), dose: 25.0 mg/kg/injection, schedule: Q07DX005 (ip), vehicle: Klucel (hydroxypropylcellulose) (HPC)",14 % of control
same,T/C,"endpoint: median tumor weight (est.), dose: 50.0 mg/kg/injection, schedule: Q07DX005 (ip), vehicle: Klucel (hydroxypropylcellulose) (HPC)",110 % of control
